US20220135622A1, “ANTIBACTERIAL PEPTIDES AND METHODS OF USE” (priority 2019, published 2022)
Values after ≈ are worked out from the molar mass of the structure shown. Where two headings read alike, the source gives them in different places. Square brackets hold non-standard residues; d marks the D form. Peptide text beside a SMILES is read from it. Ahp(2) = CCCCC[C@H](N)C(=O)O; hSer = N[C@@H](CCO)C(=O)O; NMeA = CN[C@@H](C)C(=O)O; Nle = CCCC[C@H](N)C(=O)O; Orn = NCCC[C@H](N)C(=O)O; Dap = NC[C@H](N)C(=O)O; Aib = CC(C)(N)C(=O)O

What was measured:
[1] = system: P. aeruginosa; assay type: cell-based, Pseudomonas aeruginosa
Procedure, shortened: (§1)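 For MIC, bacteria (final OD600 ~0.0002) were incubated with 2-fold peptide dilutions (top 400–800 μM) in cation-adjusted MHB II with or without EDTA, 20 h at 37 °C, read by OD600. EDTA was 0.5 mM for E. coli and 0.125 mM for USA300. The growth-inhibition assay used log-phase cells at OD600 ~0.001, 4 h at 37 °C, BacTiter-Glo luminescence.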

[2] = system: E. coli ΔwaaD + vect.; assay: MIC assay, E. coli ΔwaaD + vect.; assay type: cell-based, Escherichia coli; conditions: Table 7
Experimental: (§2) Bacterial growth conditions. LB or Mueller Hinton II cation-adjusted broth (MHB II, BBL 212322) was prepared according to manufacturer's instructions and supplemented with arabinose at 0.02% for overnight growth or at indicated concentrations in the description of the figures. Bacterial cultures were grown at 37° C. When appropriate, media was supplemented with kanamycin (50 μg/mL), carbenicillin (50 μg/mL), chloramphenicol (12.5 or 25 μg/mL), hygromycin (200 μg/mL), and/or gentamicin (10 μg/mL).
(§3) Peptide sensitivity and MIC assays. Lyophilized peptides (Smartox Biotechnology, CPC Scientific. ABclonal) were solubilized to 10 mM in Tris buffer, pH 8, prior to making a 2-fold dilution series in MHBII cation adjusted broth with highest final assay concentration of 400-800 μM. Bacteria were grown to log phase and added to final OD600˜0.001. The final EDTA concentration was 0.5 mM for E. coli strains and 0.125 mM for USA300. The final volume of 10 μL/well in a 384 well black, clear bottom plate (Corning) was spun <1 min at <250×g and then incubated at 37° C. After 4 h, an equal volume (10 μL) of BacTiter-Glo™ (Promega) was added to each well and luminescence was read after 5 min on an EnVision plate reader (PerkinElmer). To measure the minimal inhibitory concentrations (MICs), bacteria from fresh overnight plates or log phase cultures were diluted with or without EDTA and peptides as described above to final OD600˜0.0002. Plates were incubated at 37° C. for 20 h before measuring OD600 with an EnVision plate reader.

[3] = system: A. baumannii; assay type: cell-based, Acinetobacter baumannii
Procedure, shortened: as §1

[4] = system: K. pneumoniae; assay type: cell-based, Klebsiella pneumoniae
Procedure, shortened: as §1

[5] = system: E. coli BW25113; assay type: cell-based, Escherichia coli
Procedure, shortened: as §1

[6] = system: E. coli ΔwaaD MCR-1; assay: MIC assay, E. coli ΔwaaD MCR-1; assay type: cell-based, Escherichia coli; conditions: Table 7
Experimental: as §2, §3

[7] = system: S. aureus USA300; assay: MIC assay, S. aureus USA300; assay type: cell-based, Staphylococcus aureus; conditions: Table 7
Experimental: as §2, §3

[8] = system: E. coli imp4213; assay: MIC assay, E. coli imp4213; assay type: cell-based, Escherichia coli; conditions: Table 7
Experimental: as §2, §3

Row | Compound | MIC R. aeruginosa ([1]; Table 8) | MIC E. coli ΔwaaD + vect. [2] | MIC A. baumannii ([3]; Table 8) | MIC K. pneumoniae ([4]; Table 8) | MIC E. coli BW25113 ([5]; Table 8) | MIC E coli ΔwaaD − MCR1 [6] | MIC S. aureus USA300 [7] | MIC E. coli imp4213 [8] | MIC R. aeruginosa [1] | MIC A. baumannii [3] | MIC K. pneumoniae [4] | MIC E. coli BW25113 ([5]; BW25113)
1 | CCCC[C@H](NC(=O)[C@@H]1CCCN1C(=O)[C@H](Cc1ccc(O)cc1)NC(C)=O)C(=O)N[C@H](C(=O)N[C@@H](C)C(=O)N[C@@H](CCCNC(=N)N)C(=O)N[C@@H](CCCNC(=N)N)C(=O)N[C@@H](Cc1ccccc1)C(=O)N[C@@H](CC(C)C)C(=O)N[C@@H](CCC(=O)O)C(=O)N[C@@H](CCCCN)C(=O)N[C@@H](Cc1c[nH]c2ccccc12)C(=O)NCC(=O)N[C@@H](CC(C)C)C(=O)N[C@@H](CC(C)C)C(=O)N[C@@H](CCCNC(=N)N)C(N)=O)[C@@H](C)O [compound 62] (Ac-YP[Nle]TARRFLEKWGLLR-NH2) | 200 µM (≈ 412 µg/mL) | <6.25 µM | 200 µM (≈ 412 µg/mL) | 200 µM (≈ 412 µg/mL) | 400 µM (≈ 824 µg/mL) | 200 µM (≈ 412 µg/mL) | – | – | – | – | – | –
2 | Ac-YPMSARRFLEKWGLLR-NH2 [compound 49] | 400 µM | 100 µM | 200 µM | 800 µM | 400 µM | 400 µM | >400 µM | 25 µM | – | – | – | –
3 | CSCC[C@H](NC(=O)[C@@H]1CCCN1C(=O)[C@H](Cc1ccc(O)cc1)NC(C)=O)C(=O)N[C@H](C(=O)N(C)[C@@H](C)C(=O)N[C@@H](CCCNC(=N)N)C(=O)N[C@@H](CCCNC(=N)N)C(=O)N[C@@H](Cc1ccccc1)C(=O)N[C@@H](CC(C)C)C(=O)N[C@@H](CCC(=O)O)C(=O)N[C@@H](CCCCN)C(=O)N[C@@H](Cc1c[nH]c2ccccc12)C(=O)NCC(=O)N[C@@H](CC(C)C)C(=O)N[C@@H](CC(C)C)C(=O)N[C@@H](CCCNC(=N)N)C(N)=O)[C@@H](C)O [compound 64] (Ac-YPMT[NMeA]RRFLEKWGLLR-NH2) | 400 µM (≈ 837 µg/mL) | <6.25 µM | 400 µM (≈ 837 µg/mL) | None/400 | 400 µM (≈ 837 µg/mL) | 400 µM (≈ 837 µg/mL) | – | 12.5 µM (≈ 26.2 µg/mL) | – | – | – | –
4 | CSCC[C@H](NC(=O)[C@@H]1CCCN1C(=O)[C@H](Cc1ccc(O)cc1)NC(C)=O)C(=O)N[C@@H](CCO)C(=O)N[C@@H](C)C(=O)N[C@@H](CCCNC(=N)N)C(=O)N[C@@H](CCCNC(=N)N)C(=O)N[C@@H](Cc1ccccc1)C(=O)N[C@@H](CC(C)C)C(=O)N[C@@H](CCC(=O)O)C(=O)N[C@@H](CCCCN)C(=O)N[C@@H](Cc1c[nH]c2ccccc12)C(=O)NCC(=O)N[C@@H](CC(C)C)C(=O)N[C@@H](CC(C)C)C(=O)N[C@@H](CCCNC(=N)N)C(N)=O [compound 63] (Ac-YPM[hSer]ARRFLEKWGLLR-NH2) | 400 µM (≈ 831 µg/mL) | <6.25 µM | 200 µM (≈ 416 µg/mL) | 200 µM (≈ 416 µg/mL) | 400/200 | 200 µM (≈ 416 µg/mL) | – | – | – | – | – | –
5 | CCCCC[C@H](NC(=O)[C@@H](NC(=O)[C@H](CCSC)NC(=O)[C@@H]1CCCN1C(=O)[C@H](Cc1ccc(O)cc1)NC(C)=O)[C@@H](C)O)C(=O)N[C@@H](CCCNC(=N)N)C(=O)N[C@@H](CCCNC(=N)N)C(=O)N[C@@H](Cc1ccccc1)C(=O)N[C@@H](CC(C)C)C(=O)N[C@@H](CCC(=O)O)C(=O)N[C@@H](CCCCN)C(=O)N[C@@H](Cc1c[nH]c2ccccc12)C(=O)NCC(=O)N[C@@H](CC(C)C)C(=O)N[C@@H](CC(C)C)C(=O)N[C@@H](CCCNC(=N)N)C(N)=O [compound 71] (Ac-YPMT[Ahp(2)]RRFLEKWGLLR-NH2) | 50 µM (≈ 107 µg/mL) | – | <6.25 µM | 50 µM (≈ 107 µg/mL) | 100 µM (≈ 213 µg/mL) | – | – | – | – | – | – | –
6 | CSCC[C@H](NC(=O)[C@@H]1CCCN1C(=O)[C@H](Cc1ccc(O)cc1)NC(C)=O)C(=O)N[C@H](C(=O)NC(C)(C)C(=O)N[C@@H](CCCNC(=N)N)C(=O)N[C@@H](CCCNC(=N)N)C(=O)N[C@@H](Cc1ccccc1)C(=O)N[C@@H](CC(C)C)C(=O)N[C@@H](CCC(=O)O)C(=O)N[C@@H](CCCCN)C(=O)N[C@@H](Cc1c[nH]c2ccccc12)C(=O)NCC(=O)N[C@@H](CC(C)C)C(=O)N[C@@H](CC(C)C)C(=O)N[C@@H](CCCNC(=N)N)C(N)=O)[C@@H](C)O [compound 93] (Ac-YPMT[Aib]RRFLEKWGLLR-NH2) | >400.0 µM | – | 50.0 µM (≈ 105 µg/mL) | 400.0 µM (≈ 837 µg/mL) | 200.0 µM (≈ 419 µg/mL) | – | – | – | – | – | – | –
7 | CSCC[C@H](NC(=O)[C@@H]1CCCN1C(=O)[C@H](Cc1ccc(O)cc1)NC(C)=O)C(=O)N[C@H](C(=O)N[C@@H](C)C(=O)N[C@@H](CCCN)C(=O)N[C@@H](CCCNC(=N)N)C(=O)N[C@@H](Cc1ccccc1)C(=O)N[C@@H](CC(C)C)C(=O)N[C@@H](CCC(=O)O)C(=O)N[C@@H](CCCCN)C(=O)N[C@@H](Cc1c[nH]c2ccccc12)C(=O)NCC(=O)N[C@@H](CC(C)C)C(=O)N[C@@H](CC(C)C)C(=O)N[C@@H](CCCNC(=N)N)C(N)=O)[C@@H](C)O [compound 53] (Ac-YPMTA[Orn]RFLEKWGLLR-NH2) | 400 µM (≈ 815 µg/mL) | 100 µM | 400 µM (≈ 815 µg/mL) | 800 µM (≈ 1630 µg/mL) | 400 µM (≈ 815 µg/mL) | 400 µM (≈ 815 µg/mL) | >400 µM | – | – | – | – | –
8 | CSCC[C@H](NC(=O)[C@@H]1CCCN1C(=O)[C@H](Cc1ccc(O)cc1)NC(C)=O)C(=O)N[C@@H](CN)C(=O)N[C@@H](C)C(=O)N[C@@H](CCCNC(=N)N)C(=O)N[C@@H](CCCNC(=N)N)C(=O)N[C@@H](Cc1ccccc1)C(=O)N[C@@H](CC(C)C)C(=O)N[C@@H](C)C(=O)N[C@@H](CCCCN)C(=O)N[C@@H](Cc1c[nH]c2ccccc12)C(=O)NCC(=O)N[C@@H](CC(C)C)C(=O)N[C@@H](CC(C)C)C(=O)N[C@@H](CCCNC(=N)N)C(N)=O [compound 86] (Ac-YPM[Dap]ARRFLAKWGLLR-NH2) | 50.0 µM (≈ 100 µg/mL) | – | 25.0 µM (≈ 50.1 µg/mL) | 50.0 µM (≈ 100 µg/mL) | 25.0 µM (≈ 50.1 µg/mL) | – | – | – | – | – | – | –
9 | CSCC[C@H](NC(=O)[C@@H]1CCCN1C(=O)[C@H](Cc1ccc(O)cc1)NC(C)=O)C(=O)N[C@H](C(=O)N[C@@H](C)C(=O)N[C@@H](CCCNC(=N)N)C(=O)N[C@@H](CCCNC(=N)N)C(=O)N[C@@H](Cc1ccccc1)C(=O)N[C@@H](CC(C)C)C(=O)N[C@@H](CCO)C(=O)N[C@@H](CCCCN)C(=O)N[C@@H](Cc1c[nH]c2ccccc12)C(=O)NCC(=O)N[C@@H](CC(C)C)C(=O)N[C@@H](CC(C)C)C(=O)N[C@@H](CCCNC(=N)N)C(N)=O)[C@@H](C)O [compound 85] (Ac-YPMTARRFL[hSer]KWGLLR-NH2) | 200.0 µM (≈ 410 µg/mL) | – | 100.0 µM (≈ 205 µg/mL) | 200.0 µM (≈ 410 µg/mL) | 200.0 µM (≈ 410 µg/mL) | – | – | – | – | – | – | –
10 | Ac-YPMTARRFFEKWGLLR-NH2 [compound 94] | >400.0 µM | – | 200.0 µM | >400.0 µM | 200.0 µM | – | – | – | – | – | – | –
11 | Ac-YPMTLRRFLEKWGLLR-NH2 [compound 83] | 200.0 µM | – | 50.0 µM | 100.0 µM | 200.0 µM | – | – | – | – | – | – | –
12 | COC[C@H](NC(=O)[C@@H](NC(=O)[C@H](CCSC)NC(=O)[C@@H]1CCCN1C(=O)[C@H](CCCNC(=N)N)NC(C)=O)[C@@H](C)O)C(=O)N[C@@H](CCCNC(=N)N)C(=O)N[C@@H](CCCNC(=N)N)C(=O)N[C@@H](Cc1c[nH]c2ccccc12)C(=O)N[C@@H](CC(C)C)C(=O)N[C@@H](C)C(=O)N[C@@H](CCCCN)C(=O)N[C@@H](CCCNC(=N)N)C(=O)NCC(=O)N[C@@H](CC(C)C)C(N)=O [compound 215] (Ac-RPMTS(Me)RRWLAKRGL-NH2) | – | – | – | – | – | – | – | – | >400.0 µM | >400.0 µM | >400.0 µM | 200.0 µM (≈ 357 µg/mL)
